The record followed here is patent publication US20200054651A1, “COMPOSITIONS AND METHODS FOR MODULATING PPP2R1A” (The Regents of the University of California, priority 2017, published 2020).

For assay [1], the system named is 231MFP breast cancer cells. Put plainly: Metabolomic profiling (SRM-based LC-MS/MS) in 231MFP cells. The class given is cell-based. Particulars: 5 h. How it is done: For polar metabolites, cell pellets were extracted in a mixture of acetonitrile/methanol/water (40:40:20), with inclusion of D3-15N-serine (10 nM) as an internal standard. Insoluble debris was separated via centrifugation at 13,000 rpm for 10 minutes. For nonpolar metabolites, metabolomes were extracted in 2:1 chloroform:methanol (3 ml) and PBS (1 ml) with inclusion of dodecylglycerol (10 nmol) and pentadecanoic acid (10 nmol) as internal standards. Organic and aqueous layers were separated by centrifugation at 1000×g for 5 minutes; the organic layer was collected, dried under a stream of nitrogen, and then dissolved in chloroform (120 μl). An aliquot of the nonpolar or polar extracts were then injected into an Agilent 6460 or 6430 QQQ-LC/MS/MS system. Separation of polar metabolites was achieved using normal-phase chromatography with a Luna NH2 column (5 mm) using a mobile phase (Buffer A: acetonitrile; Buffer B, 95:5 water/acetonitrile; with a modifier of 0.1% formic acid or 0.2% ammonium hydroxide) along with ammonium acetate (50 mM) for positive and negative ionization mode, respectively. The following gradient was used for each run: 0% B for 5 minutes (flow rate: 0.2 mL/min), 0% B to 100% B (linear) over 15 min (flow rate: 0.7 mL/min), then followed by an isocratic gradient of 100% B for 5 minutes (flow rate: 0.7 mL/min) and then 0% B for 5 minutes (flow rate of 0.7 mL/min). For nonpolar metabolites, metabolomes were separated using reverse-phase chromatography with a Luna C5 column (50 mm×4.6 mm with 5 μm diameter particles). Mobile phase A consisted of 95:5 ratio of water/methanol and mobile phase B consisted of 2-propanol, methanol, and water in a 60:35:5 ratio. Solvent modifiers of 0.1% formic acid, 5 mM ammonium formate, and 0.1% ammonium hydroxide were used to assist ion formation as well as to improve the LC resolution in both positive and negative ionization modes, respectively. The flow rate for each run started at 0.1 ml/min for 5 minutes to alleviate backpressure associated with injecting chloroform. The gradient started at 0% B and increased linearly to 100% B over the course of 45 min with a flow rate of 0.4 ml/min, followed by an isocratic gradient of 100% B for 17 minutes at 0.5 ml/min before equilibrating for 8 minutes at 0% B with a flow rate of 0.5 ml/min.
MS analysis was performed with an electrospray ionization (ESI) source on an Agilent 6430 or 6460 QQQ LC-MS/MS system. The capillary voltage was set to 3.0 kV, and the fragmentor voltage was set to 100 V. The drying gas temperature was 350° C., the drying gas flow rate was 10 L/min, and the nebulizer pressure was 35 psi. […] Metabolite levels are expressed as relative abundances as compared to controls.

The test system of assay [2] is cysteines profiled in 231MFP cells. Put plainly: isoTOP-ABPP proteome-wide selectivity. The class given is binding. The conditions noted are these: 100 μM, out of >1000 cysteines profiled. The procedure:
IsoTOP-ABPP studies were performed using the methods described in “Nature 534(7608), 570-574 (2016)” by Backus K. M., et al. and “Nature 468(7325), 790-795 (2010)” by Weerapana E., et al. Proteome samples diluted in PBS were treated with Withaferin A or vehicle for 30 minutes at 37° C. Then, IAyne (iodoacetamide-alkyne) labeling was performed for 1 hour at room temperature. CuAAC was used by sequential addition of tris(2-carboxyethyl)phosphine (1 mM), tris[(1-benzyl-1H-1,2,3-triazol-4-yl)methyl]amine (34 μM), copper (II) sulfate (1 mM), and biotin-linker-azide where the linker was functionalized with a TEV protease recognition sequence along with an isotopically light or heavy valine for treatment of control or treated proteome, respectively. After click reactions, proteomes were precipitated by centrifugation at 6500×g, washed in ice-cold methanol, combined in a 1:1 control/treated ratio, washed again, then denatured and re-solubilized by heating in 1.2% SDS/PBS to 80° C. for 5 minutes. […]
Peptides from all proteomic experiments were pressure-loaded onto an Agilent 600 series RP-HPLC system equipped with a capillary tubing (250 mm) packed with Aqua C18 reverse-phase resin (4 cm). […] Samples were analyzed using an Q Exactive Plus mass spectrometer using a 5-step Multidimensional Protein Identification Technology (MudPIT) program. […]

Assay [3] has as its system 231MFP breast cancer cells. The experiment in a line: 231MFP serum-free cell survival (Hoechst staining). The conditions noted are these: 48 h. The class given is cell-based.

Turning to `O=C(CCl)Nc1ccc2c(c1)OCCO2` [DKM 2-90, 2-Chloro-N-(2,3-dihydrobenzo[β][1,4]dioxin-6-yl)acetamide], in assay [1] (100 μM), the ATP level entry was “Reductions”, the “LPA (lysophosphatidic acid) level” value is “reductions”, the “acetyl CoA level” value is “reduced” and the lactic acid level entry is given as “reduced”. In assay [1] (100 μM), the phosphoenolpyruvate level result is on record as “reduced” and the phosphoglycerate level result was “reduced”. For the same molecule, the “total sites showing >5 light to heavy ratio” value in assay [2] is 5.

On to `O=C(CCl)N(Cc1ccccc1)c1ccc2c(c1)OCCO2` [JNS 1-40, N-benzyl-2-chloro-N-(2,3-dihydrobenzo[b][1,4]dioxin-6-yl)acetamide], for which the serum-free cell survival result in assay [3] (100 μM) is “impaired”. For the same molecule, the “total sites showing >5 light to heavy ratio” value in assay [2] is given as “only target”.

For `CC1=C(CO)C(=O)O[C@@H]([C@@H](C)[C@H]2CC[C@H]3[C@@H]4C[C@H]5O[C@]56[C@@H](O)C=CC(=O)[C@]6(C)[C@H]4CC[C@]23C)C1` [withaferin A, reference compound], in assay [1] (10 μM), the ATP level entry is on record as “Reductions”, the “LPA (lysophosphatidic acid) level” value was “reductions”, the “acetyl CoA level” value is “reduced” and the lactic acid level result is “reduced”. Moreover, in assay [1] (10 μM), the phosphoenolpyruvate level entry was “reduced” and the phosphoglycerate level result is “reduced”. In assay [3] (10 μM), the serum-free cell survival result was “impairs”.
